Measurements reported in ChEMBL document CHEMBL4152220, “Discovery of new benzensulfonamide derivatives as tripedal STAT3 inhibitors” (Eur J Med Chem, 2018).
Activity calls are given as the source filed them. The calls are words filed in the database; no cut-off is given here.

Experiments:
[1] = target: Signal transducer and activator of transcription 3 (Homo sapiens) (UniProt P40763); experiment: Inhibition of STAT3 in human HCT116 cells assessed as reduction in IL6 induced STAT3 phosphorylation at Y705 residue preincubated for 10 hrs followed by IL6 stimulation and measured after 30 mins by Western blot analysis; assay type: cell-based
Signal transducer and activator of transcription 3 (Homo sapiens), sequence (P40763 whole entry): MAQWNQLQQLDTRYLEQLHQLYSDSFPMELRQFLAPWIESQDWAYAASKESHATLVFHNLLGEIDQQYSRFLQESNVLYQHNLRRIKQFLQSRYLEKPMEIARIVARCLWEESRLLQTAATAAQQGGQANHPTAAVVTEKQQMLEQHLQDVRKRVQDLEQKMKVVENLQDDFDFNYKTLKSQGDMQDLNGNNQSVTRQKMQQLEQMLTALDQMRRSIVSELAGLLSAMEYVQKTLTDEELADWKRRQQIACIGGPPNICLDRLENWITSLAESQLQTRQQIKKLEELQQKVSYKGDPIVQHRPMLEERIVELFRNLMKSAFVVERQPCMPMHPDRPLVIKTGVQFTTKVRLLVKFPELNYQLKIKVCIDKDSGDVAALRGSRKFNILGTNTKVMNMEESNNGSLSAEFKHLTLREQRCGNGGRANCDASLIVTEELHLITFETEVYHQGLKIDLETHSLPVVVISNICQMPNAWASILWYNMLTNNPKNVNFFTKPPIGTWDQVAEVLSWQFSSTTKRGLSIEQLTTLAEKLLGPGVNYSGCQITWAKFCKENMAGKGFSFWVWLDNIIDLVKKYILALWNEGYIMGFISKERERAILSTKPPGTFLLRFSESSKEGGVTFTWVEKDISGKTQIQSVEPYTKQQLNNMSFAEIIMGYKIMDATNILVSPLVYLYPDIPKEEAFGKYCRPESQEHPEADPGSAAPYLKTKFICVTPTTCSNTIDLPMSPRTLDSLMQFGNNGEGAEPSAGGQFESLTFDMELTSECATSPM

[2] = target: Signal transducer and activator of transcription 3 (Homo sapiens) (UniProt P40763); experiment: Inhibition of STAT3 phosphorylation at Y705 residue in human HCT116 cells at 10 uM after 20 hrs by Western blot analysis; assay type: cell-based
Mus musculus = experiment: In vivo inhibition of STAT3 in nude mouse xenografted with human HCT116 cells assessed as reduction in p-STAT3 (Y705) level at 10 to 20 mg/kg, ip dosed daily for 15 days by Western blot relative to untreated control; assay type: functional, organism-based
[3] = target: Mitogen-activated protein kinase; ERK1/ERK2 (Homo sapiens) (UniProt P27361+P28482); experiment: Inhibition of ERK1/2 phosphorylation in human HCT116 cells at 4 to 12 uM after 20 hrs by Western blot analysis; assay type: cell-based
Mitogen-activated protein kinase; ERK1/ERK2 (Homo sapiens), sequence (P27361 whole entry, looked up): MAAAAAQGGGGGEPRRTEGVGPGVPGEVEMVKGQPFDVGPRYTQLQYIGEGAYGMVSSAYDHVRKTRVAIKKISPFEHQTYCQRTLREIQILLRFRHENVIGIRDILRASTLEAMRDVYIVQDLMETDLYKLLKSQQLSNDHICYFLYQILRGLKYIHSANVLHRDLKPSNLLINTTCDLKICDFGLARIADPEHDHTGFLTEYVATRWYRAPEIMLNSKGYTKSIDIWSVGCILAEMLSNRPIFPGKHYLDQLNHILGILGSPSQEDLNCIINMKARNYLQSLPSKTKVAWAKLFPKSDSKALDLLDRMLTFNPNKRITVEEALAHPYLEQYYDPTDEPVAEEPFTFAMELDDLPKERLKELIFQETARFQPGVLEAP
Mitogen-activated protein kinase; ERK1/ERK2 (Homo sapiens), sequence (P28482 whole entry, looked up): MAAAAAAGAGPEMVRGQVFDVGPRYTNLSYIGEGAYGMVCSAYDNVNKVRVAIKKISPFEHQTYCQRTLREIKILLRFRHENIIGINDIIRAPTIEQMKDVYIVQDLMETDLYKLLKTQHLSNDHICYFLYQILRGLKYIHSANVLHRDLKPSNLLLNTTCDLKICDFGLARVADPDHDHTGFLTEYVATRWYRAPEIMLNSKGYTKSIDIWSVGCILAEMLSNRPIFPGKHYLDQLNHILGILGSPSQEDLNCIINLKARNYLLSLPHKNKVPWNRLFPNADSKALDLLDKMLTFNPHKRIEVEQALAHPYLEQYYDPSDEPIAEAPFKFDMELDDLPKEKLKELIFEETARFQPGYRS

HCT-116 [4] = experiment: Induction of apoptosis in human HCT116 cells assessed as late apoptotic cells at 12 uM after 20 hrs by Annexin V-APC/7-AAD staining-based flow cytometric analysis (reference value: 0.0%); assay type: functional
HCT-116 [5] = experiment: Induction of apoptosis in human HCT116 cells assessed as early apoptotic cells at 8 uM after 20 hrs by Annexin V-APC/7-AAD staining-based flow cytometric analysis (reference value: 3.1%); assay type: functional
[6] = target: T1, Signal transducer and activator of transcription 5A (Homo sapiens) (UniProt P42229); experiment: Inhibition of STAT5 phosphorylation at Y694 residue in human HCT116 cells at 4 to 12 uM after 20 hrs by Western blot analysis; assay type: cell-based
T1 sequence (whole entry): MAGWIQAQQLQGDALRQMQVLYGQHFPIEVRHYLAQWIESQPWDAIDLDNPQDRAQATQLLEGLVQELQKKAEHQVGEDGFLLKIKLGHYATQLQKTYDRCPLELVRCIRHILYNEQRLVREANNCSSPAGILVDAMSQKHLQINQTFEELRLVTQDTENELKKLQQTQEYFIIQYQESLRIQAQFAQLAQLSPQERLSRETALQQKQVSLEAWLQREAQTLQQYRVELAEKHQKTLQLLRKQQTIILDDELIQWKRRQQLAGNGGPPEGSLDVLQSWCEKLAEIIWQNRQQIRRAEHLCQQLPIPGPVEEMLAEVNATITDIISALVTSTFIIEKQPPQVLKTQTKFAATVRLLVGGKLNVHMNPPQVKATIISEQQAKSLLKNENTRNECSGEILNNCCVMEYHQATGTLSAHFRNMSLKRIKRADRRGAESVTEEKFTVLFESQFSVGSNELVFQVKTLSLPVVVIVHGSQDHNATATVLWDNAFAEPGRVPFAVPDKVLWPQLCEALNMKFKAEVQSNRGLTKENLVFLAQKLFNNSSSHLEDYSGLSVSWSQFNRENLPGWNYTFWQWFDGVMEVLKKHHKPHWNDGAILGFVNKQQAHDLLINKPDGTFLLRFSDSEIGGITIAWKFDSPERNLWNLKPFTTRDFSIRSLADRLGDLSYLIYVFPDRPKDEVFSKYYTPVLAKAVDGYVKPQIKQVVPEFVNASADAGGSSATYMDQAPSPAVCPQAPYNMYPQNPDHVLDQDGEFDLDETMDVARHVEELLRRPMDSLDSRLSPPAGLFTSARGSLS

HCT-116 [7] = experiment: Induction of ROS generation in human HCT116 cells at 4 to 12 uM after 20 hrs by DCFH-DA staining-based flow cytometric analysis; assay type: functional, cell-based
HCT-116 [8] = experiment: Induction of apoptosis in human HCT116 cells assessed as late apoptotic cells at 8 uM after 20 hrs by Annexin V-APC/7-AAD staining-based flow cytometric analysis (reference value: 0.0%); assay type: functional
HCT-116 [9] = experiment: Induction of apoptosis in human HCT116 cells assessed as increase in cleaved caspase3 level after 20 hrs by Western blot analysis; assay type: functional, cell-based
HCT-116 [10] = experiment: Induction of apoptosis in human HCT116 cells assessed as late apoptotic cells at 4 uM after 20 hrs by Annexin V-APC/7-AAD staining-based flow cytometric analysis (reference value: 0.0%); assay type: functional
[11] = target: T2, Signal transducer and activator of transcription 1-alpha/beta (Homo sapiens) (UniProt P42224); experiment: Inhibition of STAT1 phosphorylation at Y701 residue in human HCT116 cells at 10 uM after 20 hrs by Western blot analysis; assay type: cell-based
T2 sequence (whole entry): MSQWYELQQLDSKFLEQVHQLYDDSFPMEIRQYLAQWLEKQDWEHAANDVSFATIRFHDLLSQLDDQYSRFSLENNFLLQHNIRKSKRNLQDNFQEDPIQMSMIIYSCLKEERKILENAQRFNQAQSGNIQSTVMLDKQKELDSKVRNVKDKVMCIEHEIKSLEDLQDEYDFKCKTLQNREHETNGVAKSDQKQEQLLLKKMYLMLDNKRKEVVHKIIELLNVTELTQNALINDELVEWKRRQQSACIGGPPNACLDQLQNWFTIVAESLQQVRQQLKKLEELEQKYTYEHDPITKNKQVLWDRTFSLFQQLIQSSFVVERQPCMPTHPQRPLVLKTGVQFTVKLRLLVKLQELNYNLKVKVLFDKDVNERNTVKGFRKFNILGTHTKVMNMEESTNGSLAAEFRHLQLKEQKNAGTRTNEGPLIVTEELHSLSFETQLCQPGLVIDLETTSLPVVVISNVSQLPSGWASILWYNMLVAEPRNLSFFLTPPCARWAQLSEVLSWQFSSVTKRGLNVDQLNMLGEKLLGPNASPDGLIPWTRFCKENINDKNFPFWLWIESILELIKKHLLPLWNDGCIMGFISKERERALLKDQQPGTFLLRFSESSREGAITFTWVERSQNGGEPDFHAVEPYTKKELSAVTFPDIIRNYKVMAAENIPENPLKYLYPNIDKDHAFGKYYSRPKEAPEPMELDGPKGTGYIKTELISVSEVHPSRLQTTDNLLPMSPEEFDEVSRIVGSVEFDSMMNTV

[12] = target: Signal transducer and activator of transcription 3 (Homo sapiens) (UniProt P40763); experiment: Inhibition of STAT3 in human HCT116 cells assessed as decrease in cyclin D1 protein expression level after 20 hrs by Western blot analysis; assay type: cell-based
HCT-116 [13] = experiment: Antitumor activity against human HCT116 cells xenografted in nude mouse assessed as decrease in tumor weight at 10 mg/kg, ip dosed daily for 15 days relative to untreated control; assay type: functional; parameters: scale not given: the % may be the effect or the level left
[14] = target: Signal transducer and activator of transcription 3 (Homo sapiens) (UniProt P40763); experiment: Inhibition of STAT3 dimerization in human HCT116 cells assessed as inhibition of STAT3-STAT3 DNA binding activity at 4 to 12 uM incubated for 20 hrs by EMSA; assay type: cell-based
HCT-116 [15] = experiment: Induction of apoptosis in human HCT116 cells after 20 hrs by Annexin V-APC/7-AAD staining-based flow cytometric analysis; assay type: functional, cell-based
HCT-116 [16] = experiment: Inhibition of colony formation in human HCT116 cells treated for 20 hrs and measured after 2 weeks by crystal violet staining-based assay; assay type: functional, cell-based
[17] = target: Signal transducer and activator of transcription 3 (Homo sapiens) (UniProt P40763); experiment: Inhibition of STAT3 in human DU145 cells assessed as decrease in Bcl-2 protein level after 20 hrs by Western blot analysis; assay type: cell-based

CC(C)c1ccc(CN(Cc2c(F)c(F)c(F)c(F)c2F)c2cccc(S(N)(=O)=O)c2)cc1
inhibition [1]: Dose-dependent effect
inhibition [2]: Active
inhibition (Mus musculus): Active
inhibition [3]: inactive
Activity (HCT-116 [4]): 0.6%
Activity (HCT-116 [5]): 9.9%
inhibition [6]: inactive
Activity (HCT-116 [7]): Active
Activity (HCT-116 [8]): 0.2%
Activity (HCT-116 [9]): Dose-dependent effect
Activity (HCT-116 [10]): 0%
inhibition [11]: inactive
inhibition [12]: Dose-dependent effect
Activity (HCT-116 [13]): 41.3%
inhibition [14]: Active
Activity (HCT-116 [15]): Dose-dependent effect
inhibition (HCT-116 [16]): Dose-dependent effect
inhibition [17]: Dose-dependent effect
